According to patent publication US20250009689A1, “GASTRO-RETENTIVE ORAL DOSAGE UNIT CONTAINING A LOCAL ANAESTHETIC” (OREXA B.V., priority 2021, published 2025):
Marks after values point to notes of the source that are not given here.

Tests used:
[1] = test system: fundus strips (stomach muscularis); assay: Fundus strip length after acetylcholine-induced contraction; set-up: species or system domestic pigs; conditions: for Strip length (as percentage of baseline): 70 mg/L + acetylcholine 10^-4 M, 37° C.
Protocol: Within the gastro-intestinal tract, local circuits play a role in the regulation of food intake and transport. Mechanical extension of the stomach as a result of food intake activates stretch receptors (neurons) which in turn induces satiety signals. The pharmacology of stretch receptors can be analyzed in fundus strip preparations. Fresh stomach tissue (0-1 h after slaughter) was collected from routinely slaughtered domestic pigs. The fundus region of the stomach was removed and washed with cold saline (0.9% NaCl) solution. Tissue was submerged in clean cold saline and transported to the laboratory (transport time 30 min.). The mucosa and submucosa were removed from the muscularis (muscle layer). The muscularis was cut along the longitudinal muscle fibres in strips of approximately 1 by 5 cm. The strips were incubated for 15 min in a 37° C. saline solution. Thereafter, fundus strips were placed vertically in a transparent container, kept at 37° C. Stretching was ensured by a 5 g weight at the bottom of the strip. Test solutions were added into the container. Acetylcholine (10^−4M) exposure was used to induce a contraction of the fundus tissue. Pictures were taken at 0, 5, 10, 15, 30, 45 and 60 minutes after the start of the experiment with a digital camera. The length of the strips was measured by a blinded assessor (unknowing of the treatment) using Photoshop software (Adobe).

[2] = test system: fundus strips (stomach muscularis); assay: Acid sensitivity of lidocaine: acetic acid pre-exposure, then fundus strip experiment; set-up: species or system domestic pigs
Protocol: Fresh stomach tissue (0-1 h after slaughter) was collected from routinely slaughtered domestic pigs. The fundus region of the stomach was removed and washed with cold saline (0.9% NaCl) solution. Tissue was submerged in clean cold saline and transported to the laboratory (transport time 30 min.).
The mucosa and submucosa were removed from the muscularis (muscle layer). The muscularis was cut along the longitudinal muscle fibres in strips of approximately 1 by 5 cm. The strips were incubated for 15 min in a 37° C. saline solution.
Thereafter, fundus strips were placed vertically in a transparent container, kept at 37° C. Stretching was ensured by a 5 g weight at the bottom of the strip. Test solutions were added into the container. Acetylcholine (10^−4M) exposure was used to induce a contraction of the fundus tissue. Pictures were taken at 0, 5, 10, 15, 30, 45 and 60 minutes after the start of the experiment with a digital camera. The length of the strips was measured by a blinded assessor (unknowing of the treatment) using Photoshop software (Adobe). Values were expressed as percentage of baseline (t=0 min).
The acid sensitivity of lidocaine was determined by exposing lidocaine to acetic acid (pH 2.5) for 1, 5 and 15 minutes before carrying out experiments on fundus strips, as in Example 5.

CCOC(=O)c1ccc(N)cc1 [Benzocaine, benzocaine]
Strip length (as percentage of baseline) ([1]; time 0 min (baseline)): 100 percentage of baseline
Strip length (as percentage of baseline) ([1]; time 5 min): 102.7* percentage of baseline
Strip length (as percentage of baseline) ([1]; time 10 min): 102.3* percentage of baseline
Strip length (as percentage of baseline) ([1]; time 15 min): 102.4** percentage of baseline
Strip length (as percentage of baseline) ([1]; time 30 min): 101.5* percentage of baseline
Strip length (as percentage of baseline) ([1]; time 45 min): 101.3** percentage of baseline
Strip length (as percentage of baseline) ([1]; time 60 min): 101.3** percentage of baseline

CCCCN1CCCCC1C(=O)Nc1c(C)cccc1C (centres unmarked) [Bupivacaine, bupivacaine]
Strip length (as percentage of baseline) ([1]; time 0 min (baseline)): 100 percentage of baseline
Strip length (as percentage of baseline) ([1]; time 5 min): 106.4*** percentage of baseline
Strip length (as percentage of baseline) ([1]; time 10 min): 107.1*** percentage of baseline
Strip length (as percentage of baseline) ([1]; time 15 min): 107.0*** percentage of baseline
Strip length (as percentage of baseline) ([1]; time 30 min): 106.8*** percentage of baseline
Strip length (as percentage of baseline) ([1]; time 45 min): 104.9*** percentage of baseline
Strip length (as percentage of baseline) ([1]; time 60 min): 101.9*** percentage of baseline

CCN(CC)CC(=O)Nc1c(C)cccc1C [Lidocaine, lidocaine]
Strip length (as percentage of baseline) ([1]; time 0 min (baseline)): 100 percentage of baseline
Strip length (as percentage of baseline) ([1]; time 5 min): 105.7** percentage of baseline
Strip length (as percentage of baseline) ([1]; time 10 min): 103.6* percentage of baseline
Strip length (as percentage of baseline) ([1]; time 15 min): 101.8* percentage of baseline
Strip length (as percentage of baseline) ([1]; time 30 min): 99.5 percentage of baseline
Strip length (as percentage of baseline) ([1]; time 45 min): 98.7 percentage of baseline
Strip length (as percentage of baseline) ([1]; time 60 min): 98.0* percentage of baseline
Effect on contraction induced by acetylcholine ([1]; lidocaine 70 mg/L, conclusion in words): reversed
Acid sensitivity (activity after exposure to low pH) ([2]; acetic acid pH 2.5, conclusion in words): inactivated at low pH
Activity on acetylcholine induced contraction after shortest acid exposure ([2]; acid exposure time 1 min, conclusion in words): remains active
Strip length (percentage of baseline) ([2]; lidocaine exposed 1 min. to acetic acid pH 2.5, time 0 min (baseline)): 100 percentage of baseline
Strip length (percentage of baseline) ([2]; lidocaine exposed 1 min. to acetic acid pH 2.5, time 5 min): 114.9 percentage of baseline
Strip length (percentage of baseline) ([2]; lidocaine exposed 1 min. to acetic acid pH 2.5, time 10 min): 115.8 percentage of baseline
Strip length (percentage of baseline) ([2]; lidocaine exposed 1 min. to acetic acid pH 2.5, time 15 min): 116.7 percentage of baseline
Strip length (percentage of baseline) ([2]; lidocaine exposed 1 min. to acetic acid pH 2.5, time 30 min): 116.2* percentage of baseline
Strip length (percentage of baseline) ([2]; lidocaine exposed 1 min. to acetic acid pH 2.5, time 45 min): 115.0* percentage of baseline
Strip length (percentage of baseline) ([2]; lidocaine exposed 1 min. to acetic acid pH 2.5, time 60 min): 113.6* percentage of baseline
Strip length (percentage of baseline) ([2]; lidocaine exposed 5 min. to acetic acid pH 2.5, time 0 min (baseline)): 100 percentage of baseline
Strip length (percentage of baseline) ([2]; lidocaine exposed 5 min. to acetic acid pH 2.5, time 5 min): 108.9 percentage of baseline
Strip length (percentage of baseline) ([2]; lidocaine exposed 5 min. to acetic acid pH 2.5, time 10 min): 108.3 percentage of baseline
Strip length (percentage of baseline) ([2]; lidocaine exposed 5 min. to acetic acid pH 2.5, time 15 min): 108.0 percentage of baseline
Strip length (percentage of baseline) ([2]; lidocaine exposed 5 min. to acetic acid pH 2.5, time 30 min): 108.0 percentage of baseline
Strip length (percentage of baseline) ([2]; lidocaine exposed 5 min. to acetic acid pH 2.5, time 45 min): 106.8 percentage of baseline
Strip length (percentage of baseline) ([2]; lidocaine exposed 5 min. to acetic acid pH 2.5, time 60 min): 104.9 percentage of baseline
Strip length (percentage of baseline) ([2]; lidocaine exposed 15 min. to acetic acid pH 2.5, time 0 min (baseline)): 100 percentage of baseline
Strip length (percentage of baseline) ([2]; lidocaine exposed 15 min. to acetic acid pH 2.5, time 5 min): 106.3 percentage of baseline
Strip length (percentage of baseline) ([2]; lidocaine exposed 15 min. to acetic acid pH 2.5, time 10 min): 105.9 percentage of baseline
Strip length (percentage of baseline) ([2]; lidocaine exposed 15 min. to acetic acid pH 2.5, time 15 min): 105.2 percentage of baseline
Strip length (percentage of baseline) ([2]; lidocaine exposed 15 min. to acetic acid pH 2.5, time 30 min): 102.4 percentage of baseline
Strip length (percentage of baseline) ([2]; lidocaine exposed 15 min. to acetic acid pH 2.5, time 45 min): 97.6 percentage of baseline
Strip length (percentage of baseline) ([2]; lidocaine exposed 15 min. to acetic acid pH 2.5, time 60 min): 93.8 percentage of baseline

CN(C(=O)CN(CCO)CC(=O)N(C)C(C)(C)Cc1ccccc1)C(C)(C)Cc1ccccc1 [Oxethazaine]
Strip length (as percentage of baseline) ([1]; time 0 min (baseline)): 100 percentage of baseline
Strip length (as percentage of baseline) ([1]; time 5 min): 104.5 percentage of baseline
Strip length (as percentage of baseline) ([1]; time 10 min): 104.8* percentage of baseline
Strip length (as percentage of baseline) ([1]; time 15 min): 104.3* percentage of baseline
Strip length (as percentage of baseline) ([1]; time 30 min): 101.3 percentage of baseline
Strip length (as percentage of baseline) ([1]; time 45 min): 98.2 percentage of baseline
Strip length (as percentage of baseline) ([1]; time 60 min): 94.6 percentage of baseline

CCCNC(C)C(=O)Nc1ccccc1C (centres unmarked) [Prilocaine, prilocaine]
Strip length (as percentage of baseline) ([1]; time 0 min (baseline)): 100 percentage of baseline
Strip length (as percentage of baseline) ([1]; time 5 min): 105.1* percentage of baseline
Strip length (as percentage of baseline) ([1]; time 10 min): 105.8** percentage of baseline
Strip length (as percentage of baseline) ([1]; time 15 min): 106.2** percentage of baseline
Strip length (as percentage of baseline) ([1]; time 30 min): 106.3** percentage of baseline
Strip length (as percentage of baseline) ([1]; time 45 min): 104.1* percentage of baseline
Strip length (as percentage of baseline) ([1]; time 60 min): 100.2* percentage of baseline
